From patent US20230138393A1, “LINKING AMINO ACID SEQUENCES, MANUFACTURING METHOD THEREOF, AND USE THEREOF” (priority 2020, published 2023)
“Also recorded” adds a separate entry of the source. [ ]: non-standard residue; d: D form. The star is where a group is joined. FITC = O=C1OC2(c3ccc(O)cc3Oc3cc(O)ccc32)c2ccc(NC(=S)*)cc21; Dap = NC[C@H](N)C(=O)O

Legend:
[1] = molecular target: MYST2 (Homo sapiens, UniProt O95251); experiment: Acetyltransferase assay with acetyl-CoA analogs and H4 (1-20) peptide (MS); settings: MYST2 with H4 (1-20) peptide, mass spectrometric analysis
MYST2, sequence (O95251 whole entry): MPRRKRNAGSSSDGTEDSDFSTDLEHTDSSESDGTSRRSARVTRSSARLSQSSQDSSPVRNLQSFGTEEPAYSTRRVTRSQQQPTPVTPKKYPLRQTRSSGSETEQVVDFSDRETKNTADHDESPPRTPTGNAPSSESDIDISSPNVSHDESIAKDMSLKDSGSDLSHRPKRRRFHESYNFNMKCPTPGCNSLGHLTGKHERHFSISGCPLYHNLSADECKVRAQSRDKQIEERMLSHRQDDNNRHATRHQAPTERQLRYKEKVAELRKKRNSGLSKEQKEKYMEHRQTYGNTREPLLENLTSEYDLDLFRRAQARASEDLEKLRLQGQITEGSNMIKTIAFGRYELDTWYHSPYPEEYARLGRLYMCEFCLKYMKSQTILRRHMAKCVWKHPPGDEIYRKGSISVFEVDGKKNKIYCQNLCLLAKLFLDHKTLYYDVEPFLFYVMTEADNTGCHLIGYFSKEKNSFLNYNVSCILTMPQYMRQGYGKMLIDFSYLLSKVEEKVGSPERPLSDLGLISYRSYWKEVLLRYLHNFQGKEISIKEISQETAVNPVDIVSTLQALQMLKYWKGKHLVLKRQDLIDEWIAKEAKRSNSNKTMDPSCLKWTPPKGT

[2] = molecular target: GCN5 (Homo sapiens, UniProt Q92831); experiment: Acetyltransferase assay with acetyl-CoA analogs and H3 (1-20) peptide (MS); settings: GCN5 with H3 (1-20) peptide, mass spectrometric analysis
GCN5, sequence (Q92831 492-658 limits assumed): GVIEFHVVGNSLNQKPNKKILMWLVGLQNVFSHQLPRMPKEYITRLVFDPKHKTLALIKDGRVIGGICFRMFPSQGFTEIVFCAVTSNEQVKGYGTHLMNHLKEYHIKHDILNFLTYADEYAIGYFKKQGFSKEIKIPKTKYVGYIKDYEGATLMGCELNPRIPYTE

[3] = molecular target: TIP60 (Homo sapiens, UniProt Q92993); experiment: Acetyltransferase assay with acetyl-CoA analogs and H4 (1-20) peptide (MS); settings: TIP60 with H4 (1-20) peptide, mass spectrometric analysis
TIP60, sequence (Q92993 whole entry): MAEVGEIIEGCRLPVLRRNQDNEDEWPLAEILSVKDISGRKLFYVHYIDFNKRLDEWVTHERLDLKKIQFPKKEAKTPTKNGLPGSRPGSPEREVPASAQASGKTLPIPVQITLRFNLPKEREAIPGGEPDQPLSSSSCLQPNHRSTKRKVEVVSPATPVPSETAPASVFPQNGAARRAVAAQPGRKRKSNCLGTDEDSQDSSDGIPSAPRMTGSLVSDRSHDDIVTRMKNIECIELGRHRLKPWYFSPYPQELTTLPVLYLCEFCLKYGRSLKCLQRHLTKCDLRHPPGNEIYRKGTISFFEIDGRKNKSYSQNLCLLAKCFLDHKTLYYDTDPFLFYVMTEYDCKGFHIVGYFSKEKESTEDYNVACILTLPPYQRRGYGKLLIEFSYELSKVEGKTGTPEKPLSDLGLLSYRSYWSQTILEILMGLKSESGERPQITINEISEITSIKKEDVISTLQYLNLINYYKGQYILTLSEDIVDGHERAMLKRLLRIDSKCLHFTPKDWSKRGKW

[4] = Hydrolysis of acetyl CoA and fluoroacetyl CoA (DTNB); format: physicochemical; settings: 10 μM, 100 mM Tris buffer (pH 7.2)
Procedure: Hydrolysis of Acetyl CoA and Fluoroacetyl CoA: The hydrolysis rate of acetyl-CoA and fluoroacetyl CoA were measured in a similar manner to reported procedures (Weeks A M et al., 2010, Biochemistry, 49:9269-9279; Wagner G R et al., 2017, Cell Metab., 25:823-837). Briefly, 10 μM of the acetyl or fluoroacetyl CoA was incubated in 100 mM Tris buffer mixed with 0.5 mM DTNB, pH 7.2. The increase in the solution's absorbance at 412 nm was recorded, as a result of the reaction between DTNB and the free thiol in the released CoA hydrolysis product. A CoA standard curve was generated by measuring the absorbance of serially diluted CoA stock (200 μM) in the same assay buffer.

[5] = tested on: DLD-1 cells; experiment: Cell penetration assay of FITC-labelled Axin analogues (confocal imaging); format: cell-based; settings: for cellular uptake by confocal fluorescence microscopy (in words): 10 μM; for Mean Intensity Ratio (cell penetration): 10 μM FITC-labelled peptide, 12 h, intracellular intensity of peptide 51 normalized as 1
Procedure: Cell Penetration Assay: DLD-1 cells were seeded on 35 mm optical dishes at 3e5 per well and were incubated overnight at 37° C./5% CO2. […] Cells were imaged in buffer mimicking the physiological conditions in the cytoplasm (20 mM HEPES, 110 mM KOAc, 5 mM NaOAc, 2 mM MgOAc, 1 mM EGTA, pH 7.3).

[6] = tested on: DLD-1 cells; settings: 10 μM, 12 h
Procedure: Cell Viability Assay: Wild type DLD-1 cells were cultured in complete growth media (RPMI, 10% FBS and 1% penicillin/streptomycin) at 37° C./5% CO2. After harvesting, cells were placed onto 96-well flat bottom white plates at 10e4 cells/well, and were incubated overnight. […] The chemiluminescent signals from the control sample (treated with 0 μM peptides) were used as the 100% control. […] For DLD-1 cells, after confocal imaging for the penetration pathway studies, viability measurements were carried out similarly via directly mixing with the CellTiter-Glo reagent. Cells treated with vehicle groups were also analyzed and counted as the 100% control.

[7] = tested on: DLD-1 cells; settings: then 10 μM peptide 4 h; for Mean Intensity Ratio, no pathway blocker: DLD-1 cells pretreated with solvent vehicle only, normalized as 1; for Mean Intensity Ratio, Chlorpromazine / Mean Intensity Ratio, Cytochalasin D / Mean Intensity Ratio, Nystatin / Mean Intensity Ratio, NaClO3: DLD-1 cells, ratio to no blocker; for Mean Intensity Ratio, Chlorpromazine: 1 h 5 μg/mL chlorpromazine (clathrin-dependent endocytosis); for Mean Intensity Ratio, Cytochalasin D: 1 h 10 μg/mL cytochalasin D (actin polymerization); for Mean Intensity Ratio, Nystatin: 1 h 25 μg/mL nystatin (caveolin-mediated endocytosis); for Mean Intensity Ratio, NaClO3: 1 h 80 mM NaClO3 (proteoglycan synthesis)
Procedure: Images were analyzed with NIH ImageJ software. […] Particles in the extracellular matrix that the “analyze particle” function selected were manually deselected and removed from the data set (FIG. 58B).
After this, the FITC-labelled peptide analogues were added at a final concentration of 10 μM, and the mixture was incubated at 37° C./5% CO2 for 4 h. […] After another round of washing, cells were imaged in the buffer as aforementioned. Subsequent CellTiter-Glo viability measurements were also performed right after confocal imaging.

[8] = Measurement of FTDR reaction kinetics; format: physicochemical; settings: DMF/Tris buffer (70/30), pH 8.5, 37° C.; 40, 80, 160 mM; average of three experiments
Procedure: Measurement of Reaction Kinetics: Reaction kinetics were evaluated similarly to reported procedures (Addy P S et al., 2017, J. Am. Chem. Soc., 139:11670-11673; Sundhoro M et al., 2017, Angew. Chem. Int. Ed. Engl., 56:12117-12121.). Stock solutions of substrate (3) and nucleophiles were prepared in DMF, while TCEP stock (pH 7.4) was dissolved in H2O. Equal concentrations (40 mM, 80 mM, or 160 mM) of the substrate and the nucleophile (3,4,5-trimethoxybenzenethiol or 2,4,6-trimethoxybenzenethiol) were mixed in 40 μL of DMF/Tris buffer (70/30). Over excess amount of TCEP (100 mM, 200 mM, or 400 mM) was added, and the final pH of the mixture was adjusted to 8.5 to initiate the reaction at 37° C. Time dependent measurements were carried out by taking 2 μL of the reaction mixture at indicated time points (30 min, 60 min, 90 min, 120 min, 150 min, 180 min), and mixing it with 18 μL 0.5% TFA/ACN to quench the reaction. The samples were eventually analyzed by LC/MS and the concentrations of product and reactant were determined by comparing peak area ratios with those of the standard curves. […]; t: reaction time; [X]t: concentration of either reactant at time t).

[9] = in vitro; settings: human, pH 8.5
[10] = Stability and reactivity of model substrates and probes in cell lysates; settings: human, pH 8.5
[11] = Bioorthogonality of the fluorine-thiol displacement reaction: incubation with glutathione or cysteine (1H NMR); format: physicochemical; settings: 25 mM each, pH 8.5, 37° C., 24 h
Procedure: Bioorthogonality of the Fluorine-Thiol Displacement Reaction (FIG. 30) The common substrate 2-fluoro-N-phenethylacetamide (compound (3)) was dissolved in MeOD as a 10× stock solution (250 mM). Sixty microliter of the stock was mixed with another 60 μL of either the reduced glutathione or cysteine 10× stock solution (250 mM in D2O). The mixture was added with additional deuterated solvents (1:1 mix of deuterated sodium phosphate buffer and MeOD) to make a final volume of 600 μL (pH adjusted to 8.5). The resulting solution was incubated at 37° C. water bath for 24 h, and then analyzed by ^1H NMR spectroscopy.

[12] = molecular target: T1, beta-catenin protein (Abcam, ab63175) (UniProt P35222 1-781, limits assumed); experiment: ELISA; beta-catenin coated on plate
T1 construct: Bought protein coated on the ELISA plate; also called β-catenin; target protein β-catenin
T1 sequence (looked up): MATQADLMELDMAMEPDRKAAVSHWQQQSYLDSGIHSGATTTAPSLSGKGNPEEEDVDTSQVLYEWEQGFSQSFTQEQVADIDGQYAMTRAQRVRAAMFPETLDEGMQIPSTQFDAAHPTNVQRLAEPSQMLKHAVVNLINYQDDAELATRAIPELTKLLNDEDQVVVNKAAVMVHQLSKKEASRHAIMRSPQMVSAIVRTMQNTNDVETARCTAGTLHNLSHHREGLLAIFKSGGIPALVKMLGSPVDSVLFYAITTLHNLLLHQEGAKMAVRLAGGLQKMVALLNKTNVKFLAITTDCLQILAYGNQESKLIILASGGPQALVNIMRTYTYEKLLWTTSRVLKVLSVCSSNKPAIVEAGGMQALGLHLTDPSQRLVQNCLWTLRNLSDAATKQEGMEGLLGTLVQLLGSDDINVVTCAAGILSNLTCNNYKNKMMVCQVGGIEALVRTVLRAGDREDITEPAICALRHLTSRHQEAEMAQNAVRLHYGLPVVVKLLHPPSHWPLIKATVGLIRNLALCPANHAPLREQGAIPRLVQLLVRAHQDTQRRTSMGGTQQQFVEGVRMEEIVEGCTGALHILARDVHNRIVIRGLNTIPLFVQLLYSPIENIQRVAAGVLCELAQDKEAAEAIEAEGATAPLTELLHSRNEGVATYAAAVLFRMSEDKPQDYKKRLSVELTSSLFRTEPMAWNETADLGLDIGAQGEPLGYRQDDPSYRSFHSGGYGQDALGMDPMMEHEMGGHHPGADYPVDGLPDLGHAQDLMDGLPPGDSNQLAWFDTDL

## C#CCCC(=O)SCCNC(=O)CCNC(=O)[C@H](O)C(C)(C)COP(=O)(O)OP(=O)(O)OCC1OC(n2cnc3c(N)ncnc32)C(O)C1OP(=O)(O)O (stereo partly shown) [Peptide 4-PY-CoA, 4-pentynoyl CoA]
[1]
  labelling of histone peptide substrate by acetyltransferase: failed to incorporate
[2]
  labelling of histone peptide substrate by acetyltransferase: failed to incorporate
[3]
  labelling of histone peptide substrate by acetyltransferase: failed to incorporate

## CC(=O)SCCNC(=O)CCNC(=O)[C@H](O)C(C)(C)COP(=O)(O)OP(=O)(O)OC[C@H]1O[C@@H](n2cnc3c(N)ncnc32)[C@H](O)[C@@H]1OP(=O)(O)O [Ac-CoA, acetyl-CoA]
[1]
  labelling of histone peptide substrate by acetyltransferase: successful acetyl or acetyl analog labelling
[4]
  pseudo-first-order rate constant of hydrolysis: 0.0002 s⁻¹
[2]
  labelling of histone peptide substrate by acetyltransferase: successful acetyl or acetyl analog labelling
[3]
  labelling of histone peptide substrate by acetyltransferase: successful acetyl or acetyl analog labelling

## CC[C@H](C)[C@@H]1NC(=O)[C@@H](NC(=O)[C@H](CCC(N)=O)NC(=O)[C@@H]2CCCN2C(=O)[C@H](Cc2c[nH]c3ccccc23)NC(=O)[C@H](CCCNC(=N)N)NC(=O)COCCOCCNC(=S)Nc2ccc3c(c2)C(=O)OC32c3ccc(O)cc3Oc3cc(O)ccc32)CNC(=O)CSCc2cccc(c2)CSCC(=O)NC[C@@H](C(=O)N[C@@H](Cc2c[nH]cn2)C(=O)N[C@H](C(=O)N[C@@H](CCCNC(=N)N)C(=O)N[C@@H](CCCNC(=N)N)C(=O)N[C@H](C(=O)N[C@@H](Cc2c[nH]c3ccccc23)C(=O)N[C@@H](CCCNC(=N)N)C(N)=O)C(C)C)C(C)C)NC(=O)[C@H](CC(=O)O)NC(=O)[C@H](CC(C)C)NC1=O [Peptide 48]
[5]
  cellular uptake by confocal fluorescence microscopy (in words): significant cellular uptake
  Mean Intensity Ratio (cell penetration): 4.86±0.15
[6]
  effect on cell viability: did not affect the viability
[7]
  Mean Intensity Ratio, no pathway blocker: 1.00 ± 0.04
  Mean Intensity Ratio, Chlorpromazine: 0.13 ± 0.01
  Mean Intensity Ratio, Cytochalasin D: 0.10 ± 0.01
  Mean Intensity Ratio, Nystatin: 1.16 ± 0.03
  Mean Intensity Ratio, NaClO3: 0.12 ± 0.01

## COc1cc(S)cc(OC)c1OC [Peptide 12]
[8]
  second order rate constant of FTDR reaction with (3) (2-fluoro-N-phenethylacetamide): (0.37±0.06)×10^−3 M^−1 S^−1

## CC[C@H](C)[C@@H]1NC(=O)[C@@H](NC(=O)[C@H](CCC(N)=O)NC(=O)[C@@H]2CCCN2C(=O)[C@H](Cc2c[nH]c3ccccc23)NC(=O)[C@H](CCCNC(=N)N)NC(=O)COCCOCCNC(=S)Nc2ccc3c(c2)C(=O)OC32c3ccc(O)cc3Oc3cc(O)ccc32)CNC(=O)CSCc2cccc(c2)CSCC(=O)NC[C@H](C(=O)N[C@@H](Cc2c[nH]cn2)C(=O)N[C@H](C(=O)N[C@@H](CCCNC(=N)N)C(=O)N[C@@H](CCCNC(=N)N)C(=O)N[C@H](C(=O)N[C@@H](Cc2c[nH]c3ccccc23)C(=O)N[C@@H](CCCNC(=N)N)C(N)=O)C(C)C)C(C)C)NC(=O)[C@H](CC(=O)O)NC(=O)[C@H](CC(C)C)NC1=O [Peptide 50]
[5]
  cellular uptake by confocal fluorescence microscopy (in words): significant cellular uptake
  Mean Intensity Ratio (cell penetration): 5.05±0.14
[6]
  effect on cell viability: did not affect the viability
[7]
  Mean Intensity Ratio, no pathway blocker: 1.00 ± 0.02
  Mean Intensity Ratio, Chlorpromazine: 0.16 ± 0.01
  Mean Intensity Ratio, Cytochalasin D: 0.99 ± 0.02
  Mean Intensity Ratio, Nystatin: 0.17 ± 0.01
  Mean Intensity Ratio, NaClO3: 0.20 ± 0.01

## CC(C)(COP(=O)(O)OP(=O)(O)OCC1OC(n2cnc3c(N)ncnc32)C(O)C1OP(=O)(O)O)[C@@H](O)C(=O)NCCC(=O)NCCSC(=O)CF (stereo partly shown) [F-Ac-CoA, fluoroacetyl-CoA]
[1]
  labelling of histone peptide substrate by acetyltransferase: successful acetyl or acetyl analog labelling
[4]
  pseudo-first-order rate constant of hydrolysis: 0.0075 s⁻¹
[2]
  labelling of histone peptide substrate by acetyltransferase: successful acetyl or acetyl analog labelling
[3]
  labelling of histone peptide substrate by acetyltransferase: successful acetyl or acetyl analog labelling

## COc1cc(OC)c(S)c(OC)c1 [Peptide 13]
[8]
  second order rate constant of FTDR reaction with (3) (2-fluoro-N-phenethylacetamide): (1.03±0.06)×10^−3 M^−1 S^−1
[9]
  recovery at 14 h, 1 mM: 61.8%

## O=C(CF)NCCc1ccccc1 [Peptide 3]
[10]
  recovery at 14 h, 1 mM: 100%
[11]
  reactivity with cysteine: no reaction was observed; also recorded: stable
  reactivity with glutathione: no reaction was observed; also recorded: stable

B1: FITC labelled fluoroacetamide containing L,L substrate (47), unstapled Axin-derived peptide analogue (peptide)
peptide: {FITC}-RWPQ[Dap](fluoroacetyl)ILD[Dap](fluoroacetyl)HVRRVWR-NH2
notes: also called peptide (47); unstapled peptide (47)
[12]
  EC50: ~300 nM
